The values below come from PMC5842406, “Antidyslipidemic potential of a novel farnesoid X receptor antagonist in a hamster model of dyslipidemia: Comparative studies of other nonstatin agents” (Pharmacology Research & Perspectives, 2018).

By IC50 is commonly meant the point on the concentration scale where inhibition reaches its midpoint. The low end stands for greater potency, the high end for weaker potency.

SMILES strings stand for the structures. Bounds are passed on as bounds.

One assay concerns the target T1, PPARγ (Homo sapiens, UniProt P37231).
T1 construct: gene PPARG
T1 sequence (P37231 1-505): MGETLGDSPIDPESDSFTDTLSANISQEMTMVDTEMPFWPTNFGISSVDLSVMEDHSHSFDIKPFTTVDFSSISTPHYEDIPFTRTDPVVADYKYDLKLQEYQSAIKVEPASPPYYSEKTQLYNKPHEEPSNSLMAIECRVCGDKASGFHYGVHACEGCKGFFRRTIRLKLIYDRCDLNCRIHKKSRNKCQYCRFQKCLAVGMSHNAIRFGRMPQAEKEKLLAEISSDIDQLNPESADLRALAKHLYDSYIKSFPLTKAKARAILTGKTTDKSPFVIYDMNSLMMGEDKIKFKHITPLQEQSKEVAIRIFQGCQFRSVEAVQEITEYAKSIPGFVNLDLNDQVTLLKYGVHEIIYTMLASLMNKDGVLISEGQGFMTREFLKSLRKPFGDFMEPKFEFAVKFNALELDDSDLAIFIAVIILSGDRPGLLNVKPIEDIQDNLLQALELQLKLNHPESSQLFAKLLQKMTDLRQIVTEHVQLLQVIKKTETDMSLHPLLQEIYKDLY
Kind of assay: nuclear receptor panel assay, agonist mode. It counts as cell-based. The following applies: read-out: ED50 values. From the text: nuclear receptor panel assay, agonist mode on PPARγ

Assay [1] addresses T2, FXR (Homo sapiens, UniProt Q96RI1).
T2 construct: gene NR1H4
T2 sequence (Q96RI1 1-486): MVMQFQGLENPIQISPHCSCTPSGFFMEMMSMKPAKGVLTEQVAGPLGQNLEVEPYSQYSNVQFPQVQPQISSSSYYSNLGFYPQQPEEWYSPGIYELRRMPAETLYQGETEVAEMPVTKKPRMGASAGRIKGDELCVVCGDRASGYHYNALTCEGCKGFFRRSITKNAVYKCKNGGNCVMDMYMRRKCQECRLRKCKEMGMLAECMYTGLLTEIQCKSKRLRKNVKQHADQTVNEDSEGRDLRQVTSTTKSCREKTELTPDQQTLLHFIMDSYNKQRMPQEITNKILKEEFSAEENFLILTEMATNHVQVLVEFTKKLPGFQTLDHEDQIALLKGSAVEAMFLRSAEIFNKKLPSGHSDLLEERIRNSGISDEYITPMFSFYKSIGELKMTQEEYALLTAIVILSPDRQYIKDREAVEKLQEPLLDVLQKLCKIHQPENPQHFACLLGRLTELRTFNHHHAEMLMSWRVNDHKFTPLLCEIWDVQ
Kind of assay: luciferase reporter gene assay, agonist mode. It counts as cell-based. As to conditions: read-out: ED50 values. The text has this: luciferase reporter gene assay, agonist mode on FXR
A general note: Reporter assays use an easily measured gene product as a stand-in for the process of interest.

The subject of a further assay is T3, RXRβ.
T3 construct: gene RXRB; not described
Nature of the assay: nuclear receptor panel reporter assay, antagonist mode. As to conditions: control ligand not told for RXRβ. In kind it is cell-based, Homo sapiens. The text has this:
nuclear receptor panel reporter assay, antagonist mode on RXRβ

Assay [2] deals with T2, FXR. Nature of the assay: luciferase reporter gene assay, antagonist mode. It counts as cell-based. From the text:
luciferase reporter gene assay, antagonist mode on FXR

For the compound `CC(C)(C)n1ncc(C(=O)Nc2ccc(Cl)c(CN3CCC(Oc4ccc(C(=O)O)cc4)CC3)c2)c1-c1ccc(F)cc1` [compound‐T1, 4‐({1‐[5‐({[1‐tert‐butyl‐5‐(4‐fluorophenyl)‐1H‐pyrazol‐4‐yl]carbonyl}amino)‐2‐chlorobenzyl]piperidin‐4‐yl}oxy)benzoic acid], the EC50 at PPARγ and at FXR [1] was greater than 10 µM throughout. For the same compound, the IC50 in the assay on RXRβ is greater than 10 µM; against FXR [2], 0.0021 µM.
